Measurements reported in patent publication US12157746B2, “Tetrahydro-1H-pyrazino[2,1-a]isoindolylquinoline compounds for the treatment of autoimmune disease” (F. HOFFMANN-LA ROCHE AG, priority 2018, dated 2024).

Target: T1, human TLR9 (Homo sapiens, UniProt Q9NR96)
T1 sequence (Q9NR96 26-1032): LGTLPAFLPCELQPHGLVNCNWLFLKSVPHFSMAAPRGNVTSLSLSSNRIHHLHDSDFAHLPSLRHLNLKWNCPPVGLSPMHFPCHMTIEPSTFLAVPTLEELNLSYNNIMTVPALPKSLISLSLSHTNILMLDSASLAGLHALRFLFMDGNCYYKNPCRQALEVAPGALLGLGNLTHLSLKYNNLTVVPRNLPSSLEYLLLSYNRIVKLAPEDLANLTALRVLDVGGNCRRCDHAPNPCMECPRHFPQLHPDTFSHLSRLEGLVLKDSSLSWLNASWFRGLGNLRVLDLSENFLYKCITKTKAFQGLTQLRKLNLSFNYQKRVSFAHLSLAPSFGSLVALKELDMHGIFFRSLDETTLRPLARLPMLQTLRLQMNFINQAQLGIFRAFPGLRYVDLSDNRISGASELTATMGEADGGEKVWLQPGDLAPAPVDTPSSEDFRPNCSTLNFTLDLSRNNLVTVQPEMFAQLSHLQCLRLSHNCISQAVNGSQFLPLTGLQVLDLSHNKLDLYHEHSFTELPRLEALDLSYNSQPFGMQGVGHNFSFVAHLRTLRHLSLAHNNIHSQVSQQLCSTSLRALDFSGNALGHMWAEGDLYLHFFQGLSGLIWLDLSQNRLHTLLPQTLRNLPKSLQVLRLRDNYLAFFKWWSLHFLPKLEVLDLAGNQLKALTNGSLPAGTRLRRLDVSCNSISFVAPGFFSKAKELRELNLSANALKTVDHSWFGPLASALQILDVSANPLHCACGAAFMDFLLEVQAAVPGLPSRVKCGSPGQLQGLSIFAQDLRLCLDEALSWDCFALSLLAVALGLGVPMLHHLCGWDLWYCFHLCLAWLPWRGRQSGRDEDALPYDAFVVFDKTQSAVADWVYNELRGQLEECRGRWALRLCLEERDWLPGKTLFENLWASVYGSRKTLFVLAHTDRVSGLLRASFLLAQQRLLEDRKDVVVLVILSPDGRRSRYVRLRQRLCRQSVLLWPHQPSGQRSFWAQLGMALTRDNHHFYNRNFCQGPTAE
Assay: HEK293-Blue-hTLR-9 cells assay
Type: cell-based
Conditions: HEK293-Blue-hTLR9 cells, ODN2006 stimulation, 20 hrs, SEAP reporter; read-out: HEK/hTLR9 IC50
Source text: HEK293-Blue-hTLR-9 Cells Assay:
A stable HEK293-Blue-hTLR-9 cell line was purchased from InvivoGen (Cat. #: hkb-htlr9, San Diego. California USA). These cells were originally designed for studying the stimulation of human TLR9 by monitoring the activation of NF-κB. A SEAP (secreted embryonic alkaline phosphatase) reporter gene was placed under the control of the IFN-β minimal promoter fused to five NF-κB and AP-1-binding sites. The SEAP was induced by activating NF-κB and AP-1 via stimulating HEK-Blue hTLR9 cells with TLR9 ligands. Therefore the reporter expression was declined by TLR9 antagonist under the stimulation of a ligand, such as ODN2006 (Cat. #: tlrl-2006-1, Invivogen, San Diego, California USA), for incubation of 20 hrs. The cell culture supernatant SEAP reporter activity was determined using QUANTI-Blue™ kit (Cat. #: rep-qb1, Invivogen, San Diego, California, USA) at a wavelength of 640 nm, a detection medium that turns purple or blue in the presence of alkaline phosphatase.
HEK293-Blue-hTLR9 cells were incubated at a density of 250.000-450,000 cells/mL in a volume of 170 μL in a 96-well plate in Dulbecco's Modified Eagle's medium (DMEM) containing 4.5 g/L glucose, 50 U/mL penicillin, […], […], 2 mM L-glutamine, 10% (v/v) heat-inactivated fetal bovine serum with addition of 20 μL test compound 1n a serial dilution in the presence of final DMSO at 1% and 10 μL of 20 uM ODN2006 in above DMEM, perform incubation under 37° C. in a CO2 incubator for 20 hrs. Then 20 μL of the supernatant from each well was incubated with 180 μL Quanti-blue substrate solution at 37° C. for 2 h and the absorbance was read at 620˜655 nm using a spectrophotometer. The signaling pathway that TLR9 activation leads to downstream NF-κB activation has been widely accepted, and therefore similar reporter assay was modified for evaluating TLR9 antagonist.

Compound	IC50
C[C@@H]1CN(c2ccc(C#N)c3ncccc23)C[C@@H]2c3ccc(N4CCOC[C@H](N)C4)cc3CN12 [Example 54A, 5-[(4R,10bS)-8-[(6R)-6-amino-1,4-oxazepan-4-yl]-4-methyl-3,4,6,10b-tetrahydro-1H-pyrazino[2,1-a]isoindol-2-yl]quinoline-8-carbonitrile]	92.2 nM
COC1CN(c2ccc3c(c2)CN2C3CN(c3ccc(C#N)c4ncccc34)C[C@H]2C)CC1N (single isomer, unassigned) [Example 16B]	97.5 nM
CO[C@@H]1CN(c2ccc3c(c2)CN2[C@H](C)CN(c4ccc(C#N)n5nccc45)C[C@H]32)CC[C@H]1N [Example 104, 4-[(4R,10bS)-8-[(3R,4R)-4-amino-3-methoxy-1-piperidyl]-4-methyl-3,4,6,10b-tetrahydro-1H-pyrazino[2,1-a]isoindol-2-yl]pyrazolo[1,5-a]pyridine-7-carbonitrile]	90.3 nM
CN[C@H]1CN(c2ccc3c(c2)CN2[C@H](C)CN(c4ccc(C#N)c5ncccc45)C[C@H]32)C[C@@H]1O [Example 42, 5-[(4R,10bS)-8-[(3S,4S)-3-hydroxy-4-(methylamino)pyrrolidin-1-yl]-4-methyl-3,4,6,10b-tetrahydro-1H-pyrazino[2,1-a]isoindol-2-yl]quinoline-8-carbonitrile]	65.4 nM
C[C@@H]1CN(c2ccc(C#N)c3ncccc23)C[C@@H]2c3ccc(OCCN(C)C)cc3CN12 [Example 25, 5-[(4R,10bS)-8-[2-(dimethylamino)ethoxy]-4-methyl-3,4,6,10b-tetrahydro-1H-pyrazino[2,1-a]isoindol-2-yl]quinoline-8-carbonitrile]	116 nM
C[C@@H]1CN(c2ccc(C#N)c3ncccc23)C[C@@H]2c3ccc(N4CC(N)C5(COC5)C4)cc3CN12 (stereo partly drawn) [Example 18, 5-[(4R,10bS)-8-(5-amino-2-oxa-7-azaspiro[3.4]octan-7-yl)-4-methyl-3,4,6,10b-tetrahydro-1H-pyrazino[2,1-a]isoindol-2-yl]quinoline-8-carbonitrile]	114 nM
C[C@@H]1CN(c2ccc(C#N)n3nccc23)C[C@@H]2c3ccc(N4CCNCC4)cc3CN12 [Example 5, 4-[(4R,10bS)-4-methyl-8-piperazin-1-yl-3,4,6,10b-tetrahydro-1H-pyrazino[2,1-a]isoindol-2-yl]pyrazolo[1,5-a]pyridine-7-carbonitrile]	133 nM
N#Cc1ccc(N2CCN3Cc4cc(N5CCNCC5)ccc4C3C2)c2scnc12 (centres unmarked) [Example 4, 7-(8-piperazin-1-yl-3,4,6,10b-tetrahydro-1H-pyrazino[2,1-a]isoindol-2-yl)-1,3-benzothiazole-4-carbonitrile]	101 nM
C[C@@H]1CN(c2ccc(C#N)c3ncccc23)C[C@@H]2c3ccc(NC4CNCCOC4)cc3CN12 (stereo partly drawn) [Example 56, 5-[(4R,10bS)-4-methyl-8-(1,4-oxazepan-6-ylamino)-3,4,6,10b-tetrahydro-1H-pyrazino[2,1-a]isoindol-2-yl]quinoline-8-carbonitrile]	103 nM
C[C@@H]1CN(c2ccc(C#N)n3nccc23)C[C@@H]2c3ccc(N4C[C@@H](N)[C@H](O)C4)cc3CN12 [Example 110, 4-[(4R,10bS)-8-[(3R,4R)-3-amino-4-hydroxy-pyrrolidin-1-yl]-4-methyl-3,4,6,10b-tetrahydro-1H-pyrazino[2,1-a]isoindol-2-yl]pyrazolo[1,5-a]pyridine-7-carbonitrile]	53 nM
C[C@@H]1CN(c2ccc(C#N)n3ncc(F)c23)C[C@@H]2c3ccc(N4C[C@H](N)[C@@](C)(O)C4)cc3CN12 [Example 112, 4-[(4R,10bS)-8-[(3S,4S)-4-amino-3-hydroxy-3-methyl-pyrrolidin-1-yl]-4-methyl-3,4,6,10b-tetrahydro-1H-pyrazino[2,1-a]isoindol-2-yl]-3-fluoro-pyrazolo[1,5-a]pyridine-7-carbonitrile]	227 nM
C[C@@H]1CN(c2ccc(C#N)c3ncccc23)C[C@@H]2c3ccc(N4CCNCC(O)C4)cc3CN12 (stereo partly drawn) [Example 15, 5-[(4R,10bS)-8-(6-hydroxy-1,4-diazepan-1-yl)-4-methyl-3,4,6,10b-tetrahydro-1H-pyrazino[2,1-a]isoindol-2-yl]quinoline-8-carbonitrile]	83.2 nM
C[C@@H]1CN(c2ccc(C#N)c3ncccc23)C[C@@H]2c3ccc(N4CCNC[C@](C)(O)C4)cc3CN12 [Example 55A, 5-[(4R,10bS)-8-[(6S)-6-hydroxy-6-methyl-1,4-diazepan-1-yl]-4-methyl-3,4,6,10b-tetrahydro-1H-pyrazino[2,1-a]isoindol-2-yl]quinoline-8-carbonitrile]	111 nM
CN[C@H]1CN(c2ccc3c(c2)CN2[C@H](C)CN(c4ccc(C#N)c5ncccc45)C[C@H]32)C[C@@H]1OC [Example 23, 5-[(4R,10bS)-8-[(3S,4S)-3-methoxy-4-(methylamino)pyrrolidin-1-yl]-4-methyl-3,4,6,10b-tetrahydro-1H-pyrazino[2,1-a]isoindol-2-yl]quinoline-8-carbonitrile]	92.4 nM
CO[C@H]1CN(c2ccc3c(c2)CN2[C@H](C)CN(c4ccc(C#N)n5nccc45)C[C@H]32)C[C@@H]1N [Example 95, 4-[(4R,10bS)-8-[(3S,4S)-3-amino-4-methoxy-pyrrolidin-1-yl]-4-methyl-3,4,6,10b-tetrahydro-1H-pyrazino[2,1-a]isoindol-2-yl]pyrazolo[1,5-a]pyridine-7-carbonitrile]	215 nM
C[C@@H]1CN(c2ccc(C#N)c3ncccc23)C[C@@H]2c3ccc(N4CC(C)(N)C4)cc3CN12 [Example 39, 5-[(4R,10bS)-8-(3-amino-3-methyl-azetidin-1-yl)-4-methyl-3,4,6,10b-tetrahydro-1H-pyrazino[2,1-a]isoindol-2-yl]quinoline-8-carbonitrile]	123 nM
C[C@@H]1CN(c2ccc(C#N)c3ncccc23)C[C@@H]2c3ccc(C4CNC4)cc3CN12 [Example 29, 5-[(4R,10bS)-8-(azetidin-3-yl)-4-methyl-3,4,6,10b-tetrahydro-1H-pyrazino[2,1-a]isoindol-2-yl]quinoline-8-carbonitrile]	43.3 nM
C[C@@H]1CN(c2ccc(C#N)n3nccc23)C[C@@H]2c3ccc(N4C[C@H](N)[C@@](C)(O)C4)cc3CN12 [Example 109, 4-[(4R,10bS)-8-[(3S,4S)-4-amino-3-hydroxy-3-methyl-pyrrolidin-1-yl]-4-methyl-3,4,6,10b-tetrahydro-1H-pyrazino[2,1-a]isoindol-2-yl]pyrazolo[1,5-a]pyridine-7-carbonitrile]	160 nM
C[C@@H]1CN(c2ccc(C#N)c3ncccc23)C[C@@H]2c3ccc(N[C@@H]4CNC[C@@H]4F)cc3CN12 [Example 32, 5-[(4R,10bS)-8-[[(3R,4S)-4-fluoropyrrolidin-3-yl]amino]-4-methyl-3,4,6,10b-tetrahydro-1H-pyrazino[2,1-a]isoindol-2-yl]quinoline-8-carbonitrile]	89.2 nM
C[C@@H]1CN(c2ccc(C#N)c3ncccc23)C[C@@H]2c3ccc(N4CCNCC(C)(O)C4)cc3CN12 (stereo partly drawn) [Example 55, 5-[(4R,10S)-8-(6-hydroxy-6-methyl-1,4-diazepan-1-yl)-4-methyl-3,4,6,10b-tetrahydro-1H-pyrazino[2,1-a]isoindol-2-yl]quinoline-8-carbonitrile]	118 nM
